Like-named read-outs stand apart in the source and are kept apart here.
Legend:
[1] = biological target: T1, HCV NS5B (Hepatitis C virus genotype 1b, UniProt Q9WMX2); assay: HCV NS5B RdRp enzyme assay (standard or modified); type: biochemical
T1 construct: The protein was expressed with an 18 amino acid C-terminal truncation to enhance the solubility; made in house; host or cells: E. coli BL21(DE3)
Experimental: HCV NS5B RdRp cloning, expression, and purification. The cDNA encoding the NS5B protein of HCV, genotype 1b, was cloned into the pET21a expression vector. The protein was expressed with an 18 amino acid C-terminal truncation to enhance the solubility. The E. coli competent cell line BL21(DE3) was used for expression of the protein. Cultures were grown at 37° C. for ˜4 hours until the cultures reached an optical density of 2.0 at 600 nm. The cultures were cooled to 20° C. and induced with 1 mM IPTG. Fresh ampicillin was added to a final concentration of 50 μg/ml and the cells were grown overnight at 20° C.
Cell pellets (3 L) were lysed for purification to yield 15-24 mgs of purified NS5B. The lysis buffer consisted of 20 mM Tris-HCl, pH 7.4, 500 mM NaCl, 0.5% triton X-100, 1 mM DTT, 1mM EDTA, 20% glycerol, 0.5 mg/ml lysozyme, 10 mM MgCl2, 15 ug/ml deoxyribonuclease I, and Complete TM protease inhibitor tablets (Roche). After addition of the lysis buffer, frozen cell pellets were resuspended using a tissue homogenizer. To reduce the viscosity of the sample, aliquots of the lysate were sonicated on ice using a microtip attached to a Branson sonicator. The sonicated lysate was centrifuged at 100,000×g for 1 hr at 4° C. and filtered through a 0.2 μm filter unit (Corning).
The protein was purified using two sequential chromatography steps: Heparin sepharose CL-6B and polyU sepharose 4B (Pharmacia). The chromatography buffers were identical to the lysis buffer but contained no lysozyme, deoxyribonuclease I, MgCl2 or protease inhibitor and the NaCl concentration of the buffer was adjusted according to the requirements for charging the protein onto the column. Each column was eluted with a NaCl gradient which varied in length from 5-50 column volumes depending on the column type. After the final chromatography step, the resulting purity of the enzyme is >90% based on SDS-PAGE analysis. The enzyme was aliquoted and stored at −80° C.
Standard HCV NS5B RdRp enzyme assay. HCV RdRp genotype 1b assays were run in a final volume of 60 μl in 96 well plates (Corning 3600). The assay buffer is composed of 20 mM Hepes, pH 7.5, 2.5 mM KCl, 2.5 mM MgCl2, 1 mM DTT, 1.6 U RNAse inhibitor (Promega N2515), 0.01 mg/ml BSA (Sigma B6917), and 2% glycerol. All compounds were serially diluted (3-fold) in DMSO and diluted further in water such that the final concentration of DMSO in the assay was 2%. HCV RdRp genotype 1b enzyme was used at a final concentration of 28 nM. A polyA template was used at 6 nM, and a biotinylated oligo-dT12 primer was used at 180 nM final concentration. Template was obtained commercially (Amersham 27-4110). Biotinylated primer was prepared by Sigma Genosys. 3H-UTP was used at 0.6 μCi (0.29 μM total UTP). Reactions were initiated by the addition of enzyme, incubated at 30° C. for 60 min, and stopped by adding 25 μl of 50 mM EDTA containing SPA beads (4 μg/pl, Amersham RPNQ 0007). Plates were read on a Packard Top Count NXT after >1 hr incubation at room temperature.
Modified HCV NS5B RdRp enzyme assay. A modified enzyme assay was performed essentially as described for the standard enzyme assay except for the following: The biotinylated oligo dT12 primer was precaptured on streptavidin-coated SPA beads by mixing primer and beads in assay buffer and incubating at room temperature for one hour. Unbound primer was removed after centrifugation. The primer-bound beads were resuspended in 20 mM Hepes buffer, pH 7.5 and used in the assay at final concentrations of 20 nM primer and 0.67 μg/μl beads. Order of addition in the assay: enzyme (1.75 nM) was added to diluted compound followed by the addition of a mixture of template (0.36 nM), 3H-UTP (0.6 μCi, 0.29 μM), and primer-bound beads, to initiate the reaction; concentrations given are final. Reactions were allowed to proceed for 4 hours at 30° C.
IC50 values for compounds were determined using seven different [I]. […]

[2] = tested on: HCV replicon; assay: HCV replicon FRET / luciferase assay; type: cell-based; conditions: Hepatitis C virus
Experimental: FRET Assay Preparation. The HCV FRET screening assay was performed in 96-well cell culture plates. The FRET peptide (Anaspec, Inc.) (Taliani et al., Anal. Biochem. 1996, 240, 60-67) contains a fluorescence donor, EDANS, near one end of the peptide and an acceptor, DABCYL, near the other end. The fluorescence of the peptide is quenched by […] resonance energy transfer (RET) between the donor and the acceptor, but as the NS3 protease cleaves the peptide the products are released from RET quenching and the fluorescence of the donor becomes apparent. The assay reagent was made as follows: 5× cell Luciferase cell culture lysis reagent from Promega (#E153A) diluted to 1× with dH2O, NaCl added to 150 mM final, the FRET peptide diluted to 20 μM final from a 2 mM stock.
To prepare plates, HCV replicon cells, with or without a Renilla luciferase reporter gene, were trypsinized and plated in a 96-well plate with titrated test compounds added in columns 3 through 12; columns 1 and 2 contained a control compound (HCV control inhibitor), and the bottom row contained cells with DMSO only. The plates were then placed in a CO2 incubator at 37° C.
Assays. Subsequent to addition of the test compounds described above (FRET Assay Preparation), at various times the plate was removed and Alamar blue solution (Trek Diagnostics, #00-100) was added to measure cellular toxicity. After reading in a Cytoflour 4000 instrument (PE Biosystems), plates were rinsed with PBS and then used for FRET assay by the addition of 30 ul of the FRET peptide assay reagent described above (FRET Assay Preparation) per well. The plate was then placed into the Cytoflour 4000 instrument which had been set to 340 excite/490 emission, automatic mode for up to 20 cycles and the plate read in a kinetic mode. Typically, the signal to noise using an endpoint analysis after the reads was at least three-fold. Alternatively, after Alamar blue reading, plates were rinsed with PBS, then used for luciferase assay using the Promega Dual-Glo Luciferase Assay System or the Promega EnduRen Live Cell Substrate assay.
Compound analysis was performed by quantification of the relative HCV replicon inhibition and the relative cytotoxicity values. To calculate cytoxicity values, the average Alamar Blue fluorescence signals from the control wells were set as 100% non-toxic. The individual signals in each of the compound test wells were then divided by the average control signal and multiplied by 100% to determine […]. To calculate the HCV replicon inhibition values, an average background value was obtained from the two wells containing the highest amount of HCV control inhibitor at the end of the assay period. These numbers were similar to those obtained from naive Huh-7 cells. The background numbers were then subtracted from the average signal obtained from the control wells and this number was used as 100% activity. The individual signals in each of the compound test wells were then divided by the averaged control values after background subtraction and multiplied by 100% to determine percent activity. EC50 values were calculated as the concentration which caused a 50% reduction in FRET or luciferase activity. The two numbers generated for the compound plate, percent cytoxicity and percent activity, were used to determine compounds of interest for further analysis.

[3] = HCV NS5B RdRp genotype 1b, standard or modified enzyme assay not specified, read-out: IC50
[4] = HCV replicon cells, 50% reduction in FRET or luciferase activity, read-out: EC50

T1 sequence (Q9WMX2 2420-2992): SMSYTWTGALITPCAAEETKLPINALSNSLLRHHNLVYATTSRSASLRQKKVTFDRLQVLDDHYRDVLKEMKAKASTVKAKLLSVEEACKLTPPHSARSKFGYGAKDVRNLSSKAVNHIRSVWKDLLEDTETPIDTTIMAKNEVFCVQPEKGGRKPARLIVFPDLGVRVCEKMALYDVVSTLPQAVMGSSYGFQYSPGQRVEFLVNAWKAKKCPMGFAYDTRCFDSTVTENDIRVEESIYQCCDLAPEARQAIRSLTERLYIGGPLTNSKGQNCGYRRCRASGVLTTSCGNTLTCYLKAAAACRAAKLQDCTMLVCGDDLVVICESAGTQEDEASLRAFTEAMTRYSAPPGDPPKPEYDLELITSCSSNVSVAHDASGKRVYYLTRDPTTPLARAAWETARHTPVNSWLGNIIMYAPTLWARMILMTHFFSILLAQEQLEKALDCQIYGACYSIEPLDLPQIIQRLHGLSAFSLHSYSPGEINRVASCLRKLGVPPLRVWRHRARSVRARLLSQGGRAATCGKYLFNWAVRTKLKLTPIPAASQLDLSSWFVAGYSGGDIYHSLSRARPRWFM

SMILES	IC50 [1, 3] [µM]	EC50 [2, 4] [µM]	IC50 [1] [µM]	EC50 [2] [µM]
COc1ccc2c(c1)C1CC1(C(=O)O[C@@H]1C[C@@H]3CC[C@@]1(C)C3(C)C)Cn1c-2c(C2CCCCC2)c2ccc(C(=O)NS(=O)(=O)N(C)C)cc21 (stereo partly drawn)	0.003 to 1	> 1		
COc1ccc2c(c1)C1CC1(C(=O)N(C)C1CCN(C)C1)Cn1c-2c(C2CCCCC2)c2ccc(C(=O)NS(=O)(=O)N(C)C)cc21 (stereo not drawn)	0.003 to 1	0.003 to 1		
COc1ccc2c(c1)C1CC1(C(=O)N(C)C1CCN(C)CC1)Cn1c-2c(C2CCCCC2)c2ccc(C(=O)NS(=O)(=O)N(C)C)cc21 (stereo not drawn)	0.003 to 1	0.003 to 1		
COc1ccc2c(c1)C1CC1(C(=O)N(C)C(CN(C)C)c1ccccc1)Cn1c-2c(C2CCCCC2)c2ccc(C(=O)NS(=O)(=O)N(C)C)cc21 (stereo not drawn)	0.003 to 1	0.003 to 1		
COc1ccc2c(c1)C1CC1(C(=O)N1CCCC1CN1CCCC1)Cn1c-2c(C2CCCCC2)c2ccc(C(=O)NS(=O)(=O)N(C)C)cc21 (stereo not drawn)	0.003 to 1	0.003 to 1		
COc1ccc2c(c1)C1CC1(C(=O)N(C)CCN1CCCC1)Cn1c-2c(C2CCCCC2)c2ccc(C(=O)NS(=O)(=O)N(C)C)cc21 (stereo not drawn)	0.003 to 1	0.003 to 1		
COc1ccc2c(c1)C1CC1(C(=O)N(C)CC1CCCN1C)Cn1c-2c(C2CCCCC2)c2ccc(C(=O)NS(=O)(=O)N(C)C)cc21 (stereo not drawn)	0.003 to 1	0.003 to 1		
COc1ccc2c(c1)C1CC1(C(=O)N(C)CC1CCCCN1C)Cn1c-2c(C2CCCCC2)c2ccc(C(=O)NS(=O)(=O)N(C)C)cc21 (stereo not drawn)	0.003 to 1	0.003 to 1		
COc1ccc2c(c1)C1CC1(C(=O)N(C)[C@@H]1CCCC[C@H]1N(C)C)Cn1c-2c(C2CCCCC2)c2ccc(C(=O)NS(=O)(=O)N(C)C)cc21 (stereo partly drawn)	0.003 to 1	0.003 to 1		
COc1ccc2c(c1)C1CC1(C(=O)N(C1CC1)[C@@H]1CCCC[C@H]1N(C)C)Cn1c-2c(C2CCCCC2)c2ccc(C(=O)NS(=O)(=O)N(C)C)cc21 (stereo partly drawn)	0.003 to 1	0.003 to 1		
COc1ccc2c(c1)C1CC1(C(=O)N[C@@H]1CCC[C@H]1N(C)C)Cn1c-2c(C2CCCCC2)c2ccc(C(=O)NS(=O)(=O)N(C)C)cc21 (stereo partly drawn)	0.003 to 1	0.003 to 1		
COc1ccc2c(c1)C1CC1(C(=O)N(C)CC1(C3CCCCC3)CCCCC1)Cn1c-2c(C2CCCCC2)c2ccc(C(=O)NS(=O)(=O)N(C)C)cc21 (stereo not drawn)	0.003 to 1	0.003 to 1		
COc1ccc2c(c1)C1CC1(C(=O)N1CCNC(c3ccccc3)C1)Cn1c-2c(C2CCCCC2)c2ccc(C(=O)NS(=O)(=O)N(C)C)cc21 (stereo not drawn)	0.003 to 1	0.003 to 1		
COc1ccc2c(c1)C1CC1(C(=O)N1CCNC(c3cccc(Cl)c3)C1)Cn1c-2c(C2CCCCC2)c2ccc(C(=O)NS(=O)(=O)N(C)C)cc21 (stereo not drawn)	0.003 to 1	0.003 to 1		
COc1ccc2c(c1)C1CC1(C(=O)N1CCCN(C(=O)OC(C)(C)C)CC1)Cn1c-2c(C2CCCCC2)c2ccc(C(=O)NS(=O)(=O)C3CC3)cc21 (stereo not drawn)	0.003 to 1			
COc1ccc2c(c1)C1CC1(C(=O)N1CCCN(CCCN3CCOCC3)CC1)Cn1c-2c(C2CCCCC2)c2ccc(C(=O)NS(=O)(=O)C(C)C)cc21 (stereo not drawn)	0.003 to 1			
COc1ccc2c(c1)C=C(C(=O)N1CCCN(CCCN3CCOCC3)CC1)Cn1c-2c(C2CCCCC2)c2ccc(C(=O)NS(=O)(=O)C3CC3)cc21	0.003 to 1			
COc1ccc2c(c1)C1CC1(C(=O)NC1CC3CCC(C1)N3C)Cn1c-2c(C2CCCCC2)c2ccc(C(=O)NS(=O)(=O)N(C)C)cc21 (stereo not drawn)			0.003 to 1	0.003 to 1
COc1ccc2c(c1)C1CC1(C(=O)N[C@@H]1CC3CCN1CC3)Cn1c-2c(C2CCCCC2)c2ccc(C(=O)NS(=O)(=O)N(C)C)cc21 (stereo partly drawn)			0.003 to 1	0.003 to 1
COc1ccc2c(c1)C1CC1(C(=O)N(C)C1CC3CCC1N3C)Cn1c-2c(C2CCCCC2)c2ccc(C(=O)NS(=O)(=O)N(C)C)cc21 (stereo not drawn)			0.003 to 1	0.003 to 1
COc1ccc2c(c1)C1CC1(C(=O)N1CCN(CC(=O)N3CCCC3)CC1)Cn1c-2c(C2CCCCC2)c2ccc(C(=O)NS(=O)(=O)C(C)C)cc21 (stereo not drawn)	0.003 to 1	0.003 to 1		
COc1ccc2c(c1)C1CC1(C(=O)N1CCN(Cc3ccccc3)C[C@H]1C)Cn1c-2c(C2CCCCC2)c2ccc(C(=O)NS(C)(=O)=O)cc21 (stereo partly drawn)	0.003 to 1	0.003 to 1		
COc1ccc2c(c1)C1CC1(C(=O)N1CCN(C(=O)OC(C)(C)C)C[C@H]1c1ccccc1)Cn1c-2c(C2CCCCC2)c2ccc(C(=O)NS(C)(=O)=O)cc21 (stereo partly drawn)	0.003 to 1	0.003 to 1		
COc1ccc2c(c1)C1CC1(C(=O)N1CCN(C)CC1c1ccccc1)Cn1c-2c(C2CCCCC2)c2ccc(C(=O)NS(=O)(=O)N(C)C)cc21 (stereo not drawn) [drawing 46]	0.003 to 1			
COc1ccc2c(c1)C1CC1(C(=O)N1CCN(C)CC1c1ccccc1)Cn1c-2c(C2CCCCC2)c2ccc(C(=O)NS(=O)(=O)C(C)C)cc21 (stereo not drawn) [drawing 56]	0.003 to 1			
COc1ccc2c(c1)C1CC1(C(=O)N1CCN(C)CC1c1ccccc1)Cn1c-2c(C2CCCCC2)c2ccc(C(=O)NS(=O)(=O)N(C)C)cc21 (stereo not drawn) [drawing 64]	0.003 to 1			
COc1ccc2c(c1)C1CC1(C(=O)N1CCN(C)CC1c1ccccc1)Cn1c-2c(C2CCCCC2)c2ccc(C(=O)NS(=O)(=O)N(C)C)cc21 (stereo not drawn) [drawing 65]	0.003 to 1			
COc1ccc2c(c1)C1C[C@]1(C(=O)N1CCN(C)CC1c1ccccc1)Cn1c-2c(C2CCCCC2)c2ccc(C(=O)NS(=O)(=O)C(C)C)cc21 (stereo partly drawn) [drawing 79]	0.003 to 1			
